For assay [1], the target named is T1, KDR (Homo sapiens, UniProt P35968). Briefly: KDR HTRF in vitro kinase assay. Type of assay: biochemical. On the set-up: purified enzyme (His6-KDR 789-1354, MW 63 kD); His6 (N). Conditions: 1 mM ATP; read-out: KDR enzyme inhibition data (Ki). The procedure, abridged:
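His6-KDR 789-1354 (7 ng/well) with 0.5 μM biotinylated peptide substrate and 1 mM ATP in HEPES pH 7.1, MgCl2/MnCl2, 60 min at room temperature. EDTA-quenched, detected by streptavidin-XL-665 plus Eu-kryptate anti-phosphotyrosine HTRF after 3 h; IC50 from 620/665 nm ratio.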
Target sequence in this assay (P35968 789-1354): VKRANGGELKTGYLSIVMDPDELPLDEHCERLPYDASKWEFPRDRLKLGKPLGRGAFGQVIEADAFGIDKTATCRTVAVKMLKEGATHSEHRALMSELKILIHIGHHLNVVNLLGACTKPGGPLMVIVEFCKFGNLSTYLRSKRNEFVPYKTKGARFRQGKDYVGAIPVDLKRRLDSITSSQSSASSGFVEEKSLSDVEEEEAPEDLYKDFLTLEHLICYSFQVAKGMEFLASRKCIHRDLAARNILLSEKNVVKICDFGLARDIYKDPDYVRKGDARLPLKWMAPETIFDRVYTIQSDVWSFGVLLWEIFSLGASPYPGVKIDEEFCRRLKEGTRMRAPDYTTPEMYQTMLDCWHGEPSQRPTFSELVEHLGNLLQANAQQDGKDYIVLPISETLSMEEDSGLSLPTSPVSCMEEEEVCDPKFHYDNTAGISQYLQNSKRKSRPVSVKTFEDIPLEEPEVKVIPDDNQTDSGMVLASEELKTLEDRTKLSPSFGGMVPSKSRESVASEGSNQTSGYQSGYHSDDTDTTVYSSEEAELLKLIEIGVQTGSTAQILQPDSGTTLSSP
On the technique in general: In TR-FRET formats the signal depends on donor and acceptor labels being close together.

In a further assay the test system is NCI-H1299 cells. Briefly: Induction of polyploidy in H1299. Type of assay: cell-based, Human. Conditions: NCI-H1299, 48 hours; for EC15: Homo sapiens, read-out: EC15 (concentration of inhibitor necessary to induce polyploidy in 15% of cells). The procedure, abridged:
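Potency is given as EC15, the inhibitor concentration giving 15% polyploid cells, from log dose-response least-squares analysis. Polyploid cells (nuclear area >750 μ^2, ≥4N) were counted by Hoechst high-content microscopy. H1299 cells had been exposed for 48 h at 37 C in duplicate, then fixed in 3% formalin.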

The target of assay [2] is T1, KDR. Briefly: KDR cellular assay (KDR receptor phosphorylation ELISA). Type of assay: cell-based. On the set-up: expressed in transfected cells; host or cells: 3T3 (embryonic mouse) cells. Conditions: KDR transfected 3T3 (embryonic mouse) cells, VEGF stimulated; read-out: IC50 inhibition of KDR phosphorylation. A digest of the protocol: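 Phospho-KDR measured by capture ELISA (anti-KDR coat, biotinylated detection, streptavidin-HRP, 450 nm) in lysates of KDR-expressing 3T3 mouse fibroblasts. Cells saw compound 20 min at 37° C before 10 min VEGF challenge (100 ng/ml solution); IC50 from non-linear regression of half-log dose series.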
Target sequence in this assay (P35968 20-1356): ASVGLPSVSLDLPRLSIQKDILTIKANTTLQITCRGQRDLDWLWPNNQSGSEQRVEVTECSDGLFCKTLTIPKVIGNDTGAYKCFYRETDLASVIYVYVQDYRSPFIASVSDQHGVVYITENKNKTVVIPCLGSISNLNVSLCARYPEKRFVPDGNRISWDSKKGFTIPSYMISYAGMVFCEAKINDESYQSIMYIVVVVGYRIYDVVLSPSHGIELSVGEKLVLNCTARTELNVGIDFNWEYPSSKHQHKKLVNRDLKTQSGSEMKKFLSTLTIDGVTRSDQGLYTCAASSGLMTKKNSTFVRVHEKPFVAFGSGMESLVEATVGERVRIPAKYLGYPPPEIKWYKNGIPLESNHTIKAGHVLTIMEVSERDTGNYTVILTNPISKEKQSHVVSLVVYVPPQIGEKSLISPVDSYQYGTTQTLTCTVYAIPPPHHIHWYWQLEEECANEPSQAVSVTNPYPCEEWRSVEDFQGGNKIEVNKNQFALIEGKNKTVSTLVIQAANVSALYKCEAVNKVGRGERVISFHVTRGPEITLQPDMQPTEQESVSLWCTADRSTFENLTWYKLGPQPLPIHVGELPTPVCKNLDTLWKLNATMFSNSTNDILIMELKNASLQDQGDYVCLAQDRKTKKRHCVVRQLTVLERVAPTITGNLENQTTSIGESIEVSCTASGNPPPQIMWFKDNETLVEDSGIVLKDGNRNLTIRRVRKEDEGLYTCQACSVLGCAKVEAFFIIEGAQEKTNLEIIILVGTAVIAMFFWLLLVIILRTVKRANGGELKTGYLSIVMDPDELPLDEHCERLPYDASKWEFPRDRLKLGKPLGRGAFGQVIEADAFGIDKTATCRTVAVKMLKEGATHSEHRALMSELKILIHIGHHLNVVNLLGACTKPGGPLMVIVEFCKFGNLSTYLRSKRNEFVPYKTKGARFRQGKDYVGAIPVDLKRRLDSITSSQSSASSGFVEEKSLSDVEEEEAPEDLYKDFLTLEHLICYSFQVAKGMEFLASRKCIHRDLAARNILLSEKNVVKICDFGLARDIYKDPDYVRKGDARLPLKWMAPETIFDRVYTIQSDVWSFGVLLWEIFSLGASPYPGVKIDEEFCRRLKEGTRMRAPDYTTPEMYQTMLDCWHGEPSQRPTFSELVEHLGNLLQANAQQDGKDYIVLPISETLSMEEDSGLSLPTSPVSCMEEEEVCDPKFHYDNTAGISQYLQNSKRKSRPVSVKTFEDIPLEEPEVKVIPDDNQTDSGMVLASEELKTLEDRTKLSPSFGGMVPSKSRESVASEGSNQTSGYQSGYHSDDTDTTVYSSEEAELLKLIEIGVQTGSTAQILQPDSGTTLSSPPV
On the technique in general: An ELISA detects its analyte on a solid surface through an enzyme-linked reagent.

These results are taken from patent publication US8426408B2, “Pyrimidine inhibitors of kinases” (AbbVie Inc., priority 2009, dated 2013).

One may read the Ki as a measure of affinity in units of concentration, obtained from inhibition or displacement. As a reminder, the IC50 is the concentration that gives 50% inhibition.

Regarding `CCn1cc(Nc2ncc(Br)c(N[C@@H]3[C@H](C(N)=O)[C@H]4C=C[C@@H]3C4)n2)cn1.CCn1cc(Nc2ncc(Br)c(N[C@H]3[C@@H](C(N)=O)[C@@H]4C=C[C@H]3C4)n2)cn1` (mixture of isomers) [Example 31, (1S,2S,3R,4R)-3-({5-bromo-2-[(1-ethyl-1H-pyrazol-4-yl)amino]pyrimidin-4-yl}amino)bicyclo[2.2.1]hept-5-ene-2-carboxamide and (1R,2R,3S,4S)-3-({5-bromo-2-[(1-ethyl-1H-pyrazol-4-yl)amino]pyrimidin-4-yl}amino)bicyclo[2.2.1]hept-5-ene-2-carboxamide], the Ki on KDR [1] is under 0.1 µM. The “EC15 (concentration of inhibitor necessary to induce polyploidy in 15% of cells)” value with NCI-H1299 cells is on record as “A (“A” represents an EC15 of less than 0.1 μM)”. Moreover, the IC50 on KDR [2] was under 0.1 µM.

On to `COc1cccc(CCn2cc(Nc3ncc(Br)c(N[C@H]4[C@@H](C(N)=O)[C@@H]5C=C[C@H]4C5)n3)cn2)c1` [Example 160, (1S,2S,3R,4R)-3-{[5-bromo-2-({1-[2-(3-methoxyphenyl)ethyl]-1H-pyrazol-4-yl}amino)pyrimidin-4-yl]amino}bicyclo[2.2.1]hept-5-ene-2-carboxamide], for which the Ki at KDR [1] is under 0.1 µM. For the same molecule, the EC15 with NCI-H1299 cells is under 0.1 µM. The IC50 on KDR [2] was under 0.1 µM.

Regarding `CC(C)CCn1cc(Nc2ncc(Br)c(N[C@H]3[C@@H](C(N)=O)[C@@H]4C=C[C@H]3C4)n2)cn1` [Example 111, (1S,2S,3R,4R)-3-[(5-bromo-2-{[1-(3-methylbutyl)-1H-pyrazol-4-yl]amino}pyrimidin-4-yl)amino]bicyclo[2.2.1]hept-5-ene-2-carboxamide], the Ki at KDR [1] is under 0.1 µM. In addition, the EC15 in the assay with NCI-H1299 cells is under 0.1 µM. The IC50 on KDR [2] was under 0.1 µM.

Take `CC(C)n1cc(Nc2ncc(Cl)c(N[C@H]3[C@@H](C(N)=O)[C@@H]4C=C[C@H]3C4)n2)cn1` [Example 98, (1S,2S,3R,4R)-3-({5-chloro-2-[(1-isopropyl-1H-pyrazol-4-yl)amino]pyrimidin-4-yl}amino)bicyclo[2.2.1]hept-5-ene-2-carboxamide]: the Ki on KDR [1] was under 0.1 µM. Also, in the assay on NCI-H1299 cells, the EC15 was under 0.1 µM. Besides, the IC50 on KDR [2] is under 0.1 µM.

Regarding `COCCOCCn1cc(Nc2ncc(Cl)c(N[C@H]3[C@@H](C(N)=O)[C@@H]4C=C[C@H]3C4)n2)cn1` [Example 100, (1S,2S,3R,4R)-3-{[5-chloro-2-({1-[2-(2-methoxyethoxy)ethyl]-1H-pyrazol-4-yl}amino)pyrimidin-4-yl]amino}bicyclo[2.2.1]hept-5-ene-2-carboxamide], the Ki on KDR [1] is under 0.1 µM. The EC15 in the assay on NCI-H1299 cells is under 0.1 µM. Also, the IC50 on KDR [2] was under 0.1 µM.

As for `Cn1cc(Nc2ncc([N+](=O)[O-])c(N[C@H]3[C@@H](C(N)=O)[C@@H]4C=C[C@H]3C4)n2)cn1` [Example 139, (1S,2S,3R,4R)-3-({2-[(1-methyl-1H-pyrazol-4-yl)amino]-5-nitropyrimidin-4-yl}amino)bicyclo[2.2.1]hept-5-ene-2-carboxamide], the Ki at KDR [1] was under 0.1 µM. Besides, in the assay on NCI-H1299 cells, the EC15 was under 0.1 µM. Moreover, the IC50 on KDR [2] lay in the range of 0.1 to 1 µM.

As for “(1S,2R)-2-{[5-chloro-2-({1-[2-(morpholin-4-yl)ethyl]-1H-pyrazol-4-yl}amino)pyrimidin-4-yl]amino}cyclopentanecarboxamide and (1R,2S)-2-{[5-chloro-2-({1-[2-(morpholin-4-yl)ethyl]-1H-pyrazol-4-yl}amino)pyrimidin-4-yl]amino}cyclopentanecarboxamide [Example 137]”, at KDR [1], the Ki is under 0.1 µM. Further, in the assay with NCI-H1299 cells, the “EC15 (concentration of inhibitor necessary to induce polyploidy in 15% of cells)” value is “B (“B” represents an EC15 of between 0.1 μM and 1 μM)”. For the same molecule, the IC50 on KDR [2] fell in the range of 0.1 to 1 µM.

For `NC(=O)[C@@H]1[C@H](Nc2nc(Nc3cnn([C@H]4CCOC4)c3)ncc2Cl)[C@H]2C=C[C@@H]1C2` [Example 108, (1S,2S,3R,4R)-3-{[5-chloro-2-({1-[(3S)-tetrahydrofuran-3-yl]-1H-pyrazol-4-yl}amino)pyrimidin-4-yl]amino}bicyclo[2.2.1]hept-5-ene-2-carboxamide], the Ki on KDR [1] is under 0.1 µM. The EC15 in the assay on NCI-H1299 cells is under 0.1 µM. Moreover, the IC50 on KDR [2] is under 0.1 µM.

Consider `CS(=O)(=O)CCn1cc(Nc2ncc(Cl)c(N[C@H]3[C@@H](C(N)=O)[C@@H]4C=C[C@H]3C4)n2)cn1` [Example 119, (1S,2S,3R,4R)-3-{[5-chloro-2-({1-[2-(methylsulfonyl)ethyl]-1H-pyrazol-4-yl}amino)pyrimidin-4-yl]amino}bicyclo[2.2.1]hept-5-ene-2-carboxamide], for which, on KDR [1], the Ki is under 0.1 µM. The EC15 with NCI-H1299 cells is under 0.1 µM. At KDR [2], the IC50 lay within 0.1 to 1 µM.

On to `NC(=O)[C@@H]1[C@H](Nc2nc(Nc3cnn(Cc4ccc(Cl)cc4)c3)ncc2Cl)[C@H]2C=C[C@@H]1C2` [Example 162, (1S,2S,3R,4R)-3-[(5-chloro-2-{[1-(4-chlorobenzyl)-1H-pyrazol-4-yl]amino}pyrimidin-4-yl)amino]bicyclo[2.2.1]hept-5-ene-2-carboxamide], for which, on KDR [1], the Ki is under 0.1 µM. In addition, the EC15 in the assay on NCI-H1299 cells is under 0.1 µM. Further, at KDR [2], the IC50 is under 0.1 µM.

For `Cn1cc(Nc2ncc(Cl)c(N[C@H]3[C@@H](C(N)=O)C[C@H]4C[C@@H]3C4(C)C)n2)cn1` [Example 165, (1R,2R,3S,5R)-2-({5-chloro-2-[(1-methyl-1H-pyrazol-4-yl)amino]pyrimidin-4-yl}amino)-6,6-dimethylbicyclo[3.1.1]heptane-3-carboxamide], the Ki at KDR [1] was under 0.1 µM. For the same molecule, the EC15 in the assay with NCI-H1299 cells is under 0.1 µM. For the same molecule, the IC50 at KDR [2] lay within 0.1 to 1 µM.

For the molecule `Cc1nn(C)cc1Nc1ncc(Cl)c(N[C@H]2[C@@H](C(N)=O)[C@@H]3C=C[C@H]2C3)n1` [Example 134, (1S,2S,3R,4R)-3-({5-chloro-2-[(1,3-dimethyl-1H-pyrazol-4-yl)amino]pyrimidin-4-yl}amino)bicyclo[2.2.1]hept-5-ene-2-carboxamide], the inhibition constant (Ki) on KDR [1] is under 0.1 µM. The EC15 with NCI-H1299 cells was under 0.1 µM. Also, the IC50 on KDR [2] fell in the range of 0.1 to 1 µM.

For the molecule `Cc1nn(C)cc1Nc1ncc(Br)c(N[C@H]2[C@@H](C(N)=O)[C@@H]3C=C[C@H]2C3)n1` [Example 135, (1S,2S,3R,4R)-3-({5-bromo-2-[(1,3-dimethyl-1H-pyrazol-4-yl)amino]pyrimidin-4-yl}amino)bicyclo[2.2.1]hept-5-ene-2-carboxamide], the Ki at KDR [1] was under 0.1 µM. In addition, the EC15 in the assay with NCI-H1299 cells was under 0.1 µM. For the same molecule, the IC50 on KDR [2] was under 0.1 µM.

For the molecule `NC(=O)[C@@H]1[C@H](Nc2nc(Nc3cnn([C@@H]4CCOC4)c3)ncc2Cl)[C@H]2C=C[C@@H]1C2` [Example 107, (1S,2S,3R,4R)-3-{[5-chloro-2-({1-[(3R)-tetrahydrofuran-3-yl]-1H-pyrazol-4-yl}amino)pyrimidin-4-yl]amino}bicyclo[2.2.1]hept-5-ene-2-carboxamide], the Ki at KDR [1] was under 0.1 µM. For the same molecule, the EC15 in the assay on NCI-H1299 cells was under 0.1 µM. Moreover, the IC50 at KDR [2] is under 0.1 µM.

`NC(=O)[C@@H]1[C@H](Nc2nc(Nc3cnn(C[C@H]4CCCN4)c3)ncc2Cl)[C@H]2C=C[C@@H]1C2` [Example 102, (1S,2S,3R,4R)-3-{[5-chloro-2-({1-[(2R)-pyrrolidin-2-ylmethyl]-1H-pyrazol-4-yl}amino)pyrimidin-4-yl]amino}bicyclo[2.2.1]hept-5-ene-2-carboxamide]: the Ki on KDR [1] was under 0.1 µM. Also, in the assay on NCI-H1299 cells, the EC15 is under 0.1 µM. Moreover, the IC50 at KDR [2] was under 0.1 µM.

As to `Cn1cc(Nc2ncc(C(F)(F)F)c(Nc3ccccc3C3(O)CCC3)n2)cn1` [Example 115, 1-[2-({2-[(1-methyl-1H-pyrazol-4-yl)amino]-5-(trifluoromethyl)pyrimidin-4-yl}amino)phenyl]cyclobutanol], the Ki on KDR [1] was under 0.1 µM. For the same molecule, in the assay on NCI-H1299 cells, the EC15 is under 0.1 µM. Further, at KDR [2], the IC50 lay within 0.1 to 1 µM.

For `NC(=O)[C@H]1[C@@H]2CC[C@@H](C2)[C@H]1Nc1nc(Nc2cnn(CCO)c2)ncc1Cl` [Example 93, (1R,2S,3R,4S)-3-[(5-chloro-2-{[1-(2-hydroxyethyl)-1H-pyrazol-4-yl]amino}pyrimidin-4-yl)amino]bicyclo[2.2.1]heptane-2-carboxamide], at KDR [1], the Ki is under 0.1 µM. For the same molecule, the EC15 in the assay on NCI-H1299 cells is under 0.1 µM. In addition, the IC50 on KDR [2] lay within 0.1 to 1 µM.

On to `COc1ccc(Cn2cc(Nc3ncc(Cl)c(N[C@H]4[C@@H](C(N)=O)[C@@H]5C=C[C@H]4C5)n3)cn2)cc1F` [Example 192, (1S,2S,3R,4R)-3-[(5-chloro-2-{[1-(3-fluoro-4-methoxybenzyl)-1H-pyrazol-4-yl]amino}pyrimidin-4-yl)amino]bicyclo[2.2.1]hept-5-ene-2-carboxamide], for which the Ki on KDR [1] was under 0.1 µM. Also, in the assay with NCI-H1299 cells, the EC15 is under 0.1 µM. In addition, the IC50 on KDR [2] was under 0.1 µM.

Regarding `NC(=O)[C@@H]1[C@H](Nc2nc(Nc3cnn(C[C@H](O)CO)c3)ncc2Cl)[C@H]2C=C[C@@H]1C2` [Example 124, (1S,2S,3R,4R)-3-{[5-chloro-2-({1-[(2S)-2,3-dihydroxypropyl]-1H-pyrazol-4-yl}amino)pyrimidin-4-yl]amino}bicyclo[2.2.1]hept-5-ene-2-carboxamide], the Ki at KDR [1] is under 0.1 µM. For the same molecule, in the assay with NCI-H1299 cells, the EC15 is under 0.1 µM. Further, the IC50 on KDR [2] lay within 0.1 to 1 µM.
